Test results taken from US20260027124A1, “SUBSTITUTED IMIDAZO[1,2-A]PYRIDINE COMPOUNDS AND THE USE THEREOF IN THE TREATMENT AND PREVENTION OF FIBROSIS” (MOEXA PHARMACEUTICALS LIMITED, priority 2022, published 2026).

Test system: TGF-β
Test: TGFβ/SMAD Signaling Pathway SBE Reporter-HEK293 luciferase assay (inhibition of TGF-β)
Type: cell-based
Conditions: SBE reporter-HEK293 cells, human TGFβ1 20 ng/ml; for IC50: 4 h compound pre-incubation, ~18 hours, luciferase luminescence; for inhibitory activity against TGF-β: statement in words
Procedure: Transforming TGF-β regulates the proliferation and differentiation of fibroblasts, which are the primary constituent cells of fibrous tissues. As such, representative compounds of the present disclosure were tested for their ability to inhibit TGF-β.
• 1. TGFβ/SMAD Signaling Pathway SBE Reporter—HEK293 Cell Line BPS Bioscience Catalog #: 60653 • 2. Human TGFβ1 (BPS Bioscience #90900-1) • 3. SIS3 (Sigma #S0447): inhibitor of TGFβ pathway. Prepare stock solution in DMSO. • 4. Growth medium: MEM medium (Invitrogen #11095-080)+10% FBS (ATCC #30-2020)+1% non-essential amino acids (Lonza #13-114E)+1 mM Na pyruvate (Lonza #13-115E)+1% Penicillin/Streptomycin (ATCC #30-2300)+400 μg/ml of Geneticin (Invitrogen #11811-031). • 5. Assay medium: MEM medium+0.5% FBS+1% non-essential amino acids+1 mM Na pyruvate+1% Pen/Strep • 6. 96-well tissue culture-treated white clear-bottom assay plate (Corning #3610) • 7. ONE-Step™ Luciferase Assay System (BPS, Cat. #60690)
SBE reporter-HEK293 cells were harvested from culture in growth medium and seeded at a density of ˜10,000 cells per well into a white clear-bottom 96-well microplate in 100 μl of assay medium. The plate containing cells were incubated at 37° C. in a CO2 incubator. 24 hours after seeding, cells were washed with 100 μL of assay buffer and treated with three fold serial dilution of compounds in 50 μl assay medium. Cells were incubated at 37° C. in a CO2 incubator for 4 hours. For control wells 50 μl assay medium was added with no inhibitor. Each treatment was done in triplicate. After 4 hours of incubation, 5 μl of human TGFβ1 in assay medium was added to cells (final TGFβ1 concentration=20 ng/ml). 5 μl of assay medium was added to the unstimulated control wells (for determining the basal activity). The plate with cells was incubated at 37° C. in a CO2 incubator overnight (˜18 hours). After 18 hours of incubation Luciferase assay was performed using ONE-Step™ Luciferase Assay System according to the protocol provided: 50 μl of ONE-Step™ Luciferase reagent was added per well and shook at room temperature for ˜10 minutes. Luminescence was measured using a luminometer.

Structure (SMILES) | IC50 [µM] | inhibitory activity against TGF-β
COc1cc2c(cc1OC)CN(C(=O)/C=C/c1c(-c3ccc(Cl)cc3)nc3ccccn13)CC2 [Compound 6] | 5.45 | showed inhibitory activity
COc1cc2c(cc1OC)CN(C(=O)/C=C/c1c(-c3ccccc3)nc3ccccn13)C2 [Compound 9] | 6.11 | showed inhibitory activity
COc1cc2c(cc1OC)CN(C(=O)/C=C/c1c(-c3ccccc3)nc3ccc(F)cn13)C2 [Compound 10] | 4.32 | showed inhibitory activity

These reach a lower IC50. Values come first.

IC50 [µM] | inhibitory activity against TGF-β | Structure (SMILES)
3.72 | showed inhibitory activity | O=C(/C=C/c1c(-c2ccccc2)nc2ccccn12)N1CCOCC1 [Compound 8]
2.65 | – | COc1cc2c(cc1OC)CN(C(=O)/C=C/c1c(-c3ccccc3)n(C)c3ncccc13)CC2 [SIS3, reference compound]
3.52 | showed inhibitory activity | COc1cc2c(cc1OC)CN(C(=O)/C=C/c1c(-c3ccc(F)cc3)nc3ccccn13)C2 [Compound 11]
